{"source": "patent US5851556A", "about": "“Use of a salt of an alkaline-earth metal as TNF-A or substance P inhibitor in a topical composition and composition obtained” (Societe L'Oreal S.A., priority 1995, dated 1998)", "key": {"TNF-alpha": {"system": "TNF-alpha", "experiment": "TNF-alpha secretion by human monocytes (U937 line) stimulated by phorbol ester (PMA)", "assay_type": "cell-based", "details": "U937, PMA 10 nM, 48 hours; for % inhibition of TNF-alpha secretion induced by PMA: mean of 3 measurements", "procedure": "This test is performed on human monocytes (U937 line) stimulated by a phorbol ester (PMA) according to the method described by Schindler et al (Correlations and interactions in the production of interleukin-6 (IL-6), IL-1, and Tumor Necrosis Factor (TNF) in human blood mononuclear cells: IL-6 suppresses IL-1 and TNF. Blood 75: 40-47 (1990)).\nThe phorbol ester (PMA) naturally stimulates the synthesis and/or the secretion of TNF-alpha by human monocytes in culture.\nThe activity of the molecules is evaluated according to their ability to reduce or even eliminate this TNF-alpha secretion.\nThe cells (monocytes) are incubated in the presence of PMA at the concentration of 10 nM for 48 hours at 37° C. The quantities of TNF-alpha secreted are quantified by immuno-enzymatic assay ([…]) with the aid of commercially available kits.\nEach molecule is tested at 3 different concentrations (10^-5, 10^-4 and 10^-3 M) and during each experiment, a reference molecule (dexamethasone) is studied at 7 concentrations as internal standard.\nThe results are expressed as percentage inhibition relative to the positive control (without test molecule) after subtracting the background noise. A recapitulative Table 3 groups together the mean inhibitory effects obtained with the compounds. (The results expressed in % inhibition; they are the mean of 3 measurements)."}, "substance P": {"system": "substance P", "experiment": "release of substance P caused by antidromic stimulation of the sciatic nerve, visualized with Evans blue", "assay_type": "in vivo", "details": "for % inhibition relative to the control / μg/ml of Evans blue: 1 μmol; for μg/ml of Evans blue: control vehicle 8.19 ± 0.83", "text": "The test consisted in determining the activity of the various compounds on the release of substance P, caused by antidromic stimulation of the sciatic nerve. This release is visualized by staining with a dye (Evans blue). The greater the quantity of substance P released, the more intense the colour. In other words, the greater the inhibitory effect produced on this release by the substance P antagonist, the less intense the colour."}}, "data": [{"compound": "[Cl-].[Cl-].[Mg+2]", "note": "[MgCl2, magnesium chloride]", "values": [{"measurement": "% inhibition of TNF-alpha secretion induced by PMA", "setting": "TNF-alpha; 10^-3 M", "result": 70, "unit": "%"}, {"measurement": "% inhibition of TNF-alpha secretion induced by PMA", "setting": "TNF-alpha; 10^-4 M", "result": 12, "unit": "%"}]}, {"compound": "[Ca+2].[Cl-].[Cl-]", "note": "[CaCl2,7H2 O, calcium chloride]", "values": [{"measurement": "% inhibition of TNF-alpha secretion induced by PMA", "setting": "TNF-alpha; 10^-3 M", "result": 67, "unit": "%"}, {"measurement": "% inhibition of TNF-alpha secretion induced by PMA", "setting": "TNF-alpha; 10^-4 M", "result": 22, "unit": "%"}, {"measurement": "% inhibition of TNF-alpha secretion induced by PMA", "setting": "TNF-alpha; 10^-5 M", "result": 19, "unit": "%"}]}, {"compound": "[Cl-].[Cl-].[Sr+2]", "note": "[SrCl2 7H2 O, strontium chloride]", "values": [{"measurement": "% inhibition of TNF-alpha secretion induced by PMA", "setting": "TNF-alpha; 10^-3 M", "result": 54, "unit": "%"}, {"measurement": "% inhibition of TNF-alpha secretion induced by PMA", "setting": "TNF-alpha; 10^-5 M", "result": 14, "unit": "%"}]}, {"compound": "O=[N+]([O-])[O-].O=[N+]([O-])[O-].[Sr+2]", "note": "[Sr(NO3)2, strontium nitrate]", "values": [{"measurement": "% inhibition of TNF-alpha secretion induced by PMA", "setting": "TNF-alpha; 10^-3 M", "result": 75, "unit": "%"}, {"measurement": "% inhibition of TNF-alpha secretion induced by PMA", "setting": "TNF-alpha; 10^-4 M", "result": 28, "unit": "%"}, {"measurement": "% inhibition relative to the control", "setting": "substance P; Table 1", "result": 41, "unit": "%"}, {"measurement": "μg/ml of Evans blue", "setting": "substance P; Table 1", "result": "4.84 ± 0.6", "unit": "µg/mL"}, {"measurement": "% inhibition relative to the control", "setting": "substance P; Table 2", "result": 71, "unit": "%"}]}, {"compound": "C[C@@H]1C[C@H]2[C@@H]3CCC4=CC(=O)C=C[C@]4(C)[C@@]3(F)[C@@H](O)C[C@]2(C)[C@@]1(O)C(=O)CO", "note": "[dexamethasone, reference compound]", "values": [{"measurement": "IC50", "setting": "TNF-alpha; Homo sapiens, U-937, read-out: IC50 (50% reduction in the secretion, caused by PMA), reference molecule, 7 concentrations", "result": 4, "unit": "nM"}]}, {"compound": "[Cl-].[Cl-].[Sr+2]", "note": "[SrCl2, strontium chloride]", "values": [{"measurement": "% inhibition relative to the control", "setting": "substance P; Table 1", "result": 37, "unit": "%"}, {"measurement": "μg/ml of Evans blue", "setting": "substance P; Table 1", "result": "5.13 ± 0.9", "unit": "µg/mL"}, {"measurement": "% inhibition relative to the control", "setting": "substance P; Table 2", "result": 57, "unit": "%"}]}, {"compound": "O=[N+]([O-])[O-].O=[N+]([O-])[O-].[Ca+2]", "note": "[Ca(NO3)2, calcium nitrate]", "values": [{"measurement": "inhibitory activity on the release of substance P", "setting": "substance P; Table 1, salts at 1 μmol", "result": "does not have any activity at all"}, {"measurement": "inhibitory activity on the release of substance P", "setting": "substance P; Table 2, strontium salts 1 μmol, calcium salt 10 μmol", "result": "has no activity at all"}]}]}
